In ChEMBL document CHEMBL3045439, “Isoforms of the heteropteran Nezara viridula ecdysone receptor: protein characterisation, RH5992 insecticide binding and homology modelling” (Pest Manag Sci, 2011):
pKi: −log10 of the molar value.

What was measured:
Assay type in all cases: protein-complex assay
Ecdysone receptor [1] = biological target: T1, Ecdysone receptor (Aedes aegypti, UniProt P49880+Q9GSG8); experiment: Binding affinity to Aedes aegypti EcR
T1 sequence (P49880 whole entry): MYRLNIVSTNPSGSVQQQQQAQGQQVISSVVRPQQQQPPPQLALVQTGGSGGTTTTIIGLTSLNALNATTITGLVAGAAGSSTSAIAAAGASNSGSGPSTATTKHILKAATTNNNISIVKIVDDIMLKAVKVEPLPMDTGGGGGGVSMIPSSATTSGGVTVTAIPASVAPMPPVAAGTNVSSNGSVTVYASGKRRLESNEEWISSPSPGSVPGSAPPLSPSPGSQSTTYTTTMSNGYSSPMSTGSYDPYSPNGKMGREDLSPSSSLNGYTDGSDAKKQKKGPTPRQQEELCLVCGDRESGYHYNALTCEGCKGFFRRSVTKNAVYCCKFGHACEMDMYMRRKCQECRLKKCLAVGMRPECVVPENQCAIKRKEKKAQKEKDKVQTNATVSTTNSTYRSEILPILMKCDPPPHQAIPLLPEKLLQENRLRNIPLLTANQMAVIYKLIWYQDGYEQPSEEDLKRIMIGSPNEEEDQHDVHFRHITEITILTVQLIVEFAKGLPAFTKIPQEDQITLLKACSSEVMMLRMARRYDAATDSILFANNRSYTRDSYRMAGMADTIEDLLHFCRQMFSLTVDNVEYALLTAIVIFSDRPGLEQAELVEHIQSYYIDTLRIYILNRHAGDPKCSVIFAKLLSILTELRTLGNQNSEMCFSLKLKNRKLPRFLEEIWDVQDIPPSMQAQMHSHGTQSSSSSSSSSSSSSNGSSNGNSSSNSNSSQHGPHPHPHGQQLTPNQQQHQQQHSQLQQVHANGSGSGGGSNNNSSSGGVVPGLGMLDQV
T1 sequence (Q9GSG8 whole entry): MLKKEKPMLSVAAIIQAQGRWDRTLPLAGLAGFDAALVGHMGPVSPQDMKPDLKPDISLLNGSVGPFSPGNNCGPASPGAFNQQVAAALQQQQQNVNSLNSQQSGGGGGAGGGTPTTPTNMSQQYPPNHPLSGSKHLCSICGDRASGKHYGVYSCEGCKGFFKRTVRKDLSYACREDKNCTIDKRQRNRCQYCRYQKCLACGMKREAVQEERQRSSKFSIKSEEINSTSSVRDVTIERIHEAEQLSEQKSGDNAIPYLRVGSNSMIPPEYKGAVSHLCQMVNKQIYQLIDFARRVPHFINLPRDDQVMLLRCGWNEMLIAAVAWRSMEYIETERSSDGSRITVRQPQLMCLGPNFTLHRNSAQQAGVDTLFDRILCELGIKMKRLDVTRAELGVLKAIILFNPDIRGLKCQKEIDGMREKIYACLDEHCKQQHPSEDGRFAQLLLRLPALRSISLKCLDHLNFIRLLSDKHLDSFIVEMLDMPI

Ecdysone receptor [2] = biological target: T2, Ecdysone receptor (Chilo suppressalis, UniProt Q8I1M8+Q8MYA6); experiment: Binding affinity to Chilo suppressalis (rice stem borer) EcR
T2 sequence (Q8MYA6 whole entry): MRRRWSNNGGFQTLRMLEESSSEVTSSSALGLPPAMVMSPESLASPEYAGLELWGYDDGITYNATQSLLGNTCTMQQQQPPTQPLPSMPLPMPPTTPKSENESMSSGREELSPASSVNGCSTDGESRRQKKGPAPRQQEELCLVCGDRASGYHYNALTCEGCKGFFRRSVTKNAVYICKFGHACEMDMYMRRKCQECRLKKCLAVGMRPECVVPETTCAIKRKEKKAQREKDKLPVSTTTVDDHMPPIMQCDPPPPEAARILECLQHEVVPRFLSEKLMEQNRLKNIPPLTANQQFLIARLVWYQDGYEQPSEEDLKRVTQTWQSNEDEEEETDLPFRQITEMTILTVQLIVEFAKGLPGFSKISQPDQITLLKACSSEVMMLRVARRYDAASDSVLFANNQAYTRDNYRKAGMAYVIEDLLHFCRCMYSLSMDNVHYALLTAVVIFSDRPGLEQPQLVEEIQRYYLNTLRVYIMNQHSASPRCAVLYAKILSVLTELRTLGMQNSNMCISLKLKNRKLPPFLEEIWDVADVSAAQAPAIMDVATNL
T2 sequence (Q8I1M8 whole entry): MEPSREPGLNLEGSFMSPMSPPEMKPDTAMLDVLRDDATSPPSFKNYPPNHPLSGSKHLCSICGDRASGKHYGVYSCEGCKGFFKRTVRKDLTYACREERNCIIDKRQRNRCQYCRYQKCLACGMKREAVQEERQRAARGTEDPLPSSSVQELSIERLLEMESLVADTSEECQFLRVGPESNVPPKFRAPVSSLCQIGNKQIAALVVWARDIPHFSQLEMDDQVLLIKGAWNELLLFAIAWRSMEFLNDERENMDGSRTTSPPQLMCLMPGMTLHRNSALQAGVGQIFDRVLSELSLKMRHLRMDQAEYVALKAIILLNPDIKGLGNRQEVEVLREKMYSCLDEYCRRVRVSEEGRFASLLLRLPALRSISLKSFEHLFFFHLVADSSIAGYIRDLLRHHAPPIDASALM

Ecdysone receptor [3] = biological target: Ecdysone receptor (Bemisia tabaci, UniProt A3EZJ4+A3EZJ5); experiment: Binding affinity to Bemisia tabaci (sweet potato whitefly) ecdysone receptor (EcR)
Chain of Ecdysone receptor (Bemisia tabaci, UniProt A3EZJ4+A3EZJ5) (A3EZJ4 1-297): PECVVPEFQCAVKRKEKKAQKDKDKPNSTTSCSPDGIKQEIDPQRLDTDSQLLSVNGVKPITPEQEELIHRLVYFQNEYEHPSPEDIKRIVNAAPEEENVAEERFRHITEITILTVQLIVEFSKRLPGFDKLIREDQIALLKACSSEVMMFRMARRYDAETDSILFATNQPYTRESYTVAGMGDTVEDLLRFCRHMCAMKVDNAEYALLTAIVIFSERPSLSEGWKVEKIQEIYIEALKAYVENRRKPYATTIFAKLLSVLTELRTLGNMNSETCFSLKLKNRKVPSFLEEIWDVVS
Chain of Ecdysone receptor (Bemisia tabaci, UniProt A3EZJ4+A3EZJ5) (A3EZJ5 1-251): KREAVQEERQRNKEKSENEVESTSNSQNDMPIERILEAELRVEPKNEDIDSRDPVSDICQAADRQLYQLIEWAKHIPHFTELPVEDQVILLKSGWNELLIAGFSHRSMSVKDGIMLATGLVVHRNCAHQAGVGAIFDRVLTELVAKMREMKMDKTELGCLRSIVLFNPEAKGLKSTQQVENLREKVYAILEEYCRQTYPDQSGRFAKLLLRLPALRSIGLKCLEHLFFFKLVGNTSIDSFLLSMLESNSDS

## CCc1ccc(C(=O)NN(C(=O)c2cc(C)cc(C)c2)C(C)(C)C)cc1 [TEBUFENOZIDE]
Ecdysone receptor [1]
  pKi: 7.60
Ecdysone receptor [2]
  pKi: 8.90
Ecdysone receptor [3]
  pKi: < 3.30
